Assay results taken from patent publication US20240092768A1, “CRYSTAL FORM OF ANTI-INFLUENZA VIRUS COMPOUND, PREPARATION METHOD FOR CRYSTAL FORM, AND USE OF CRYSTAL FORM” (XIZANG HAISCO PHARMACEUTICAL CO., LTD., priority 2021, published 2024).

Columns and labels:
[1] = experiment of crystal form transformation in water; assay type: physicochemical; conditions: room temperature, stirring of magma for 7 days, XRPD
[2] = hygroscopicity experiment, dynamic vapor sorption (DVS); assay type: physicochemical; conditions: 25° C.
IFVA/Weiss/43 = assay: cytopathic effect (CPE) antiviral assay in MDCK cells, IFVA/Weiss/43; assay type: cell-based, influenza viruses; conditions: 120 h, CPE method, 5 days, CCK-8 cell viability
IFVA/Mal/302/54 = assay: cytopathic effect (CPE) antiviral assay in MDCK cells, IFVA/Mal/302/54; assay type: cell-based, influenza viruses; conditions: 120 h, CPE method, 5 days, CCK-8 cell viability
IFV A/PR/8/34 = assay: cytopathic effect (CPE) antiviral assay in MDCK cells, IFV A/PR/8/34; assay type: cell-based, influenza viruses; conditions: 120 h, CPE method, 5 days, CCK-8 cell viability

Row | SMILES | crystal form after stirring of magma in water [1] | weight change in a range of 0% RH to 80% RH [2] | EC50 (IFVA/Weiss/43) [nM] | EC50 (IFVA/Mal/302/54) [nM] | weight change in a range of 0% RH to 80% RH ([2]; listed as amorphous form of the compound A) | EC50 (IFV A/PR/8/34) [nM]
1 | Cc1nnn([C@@H](c2ccccc2)C2CCN(C(=O)c3cc(-c4nc5cc(NC(=O)[C@@H]6C[C@@H]6F)ccc5o4)ccn3)CC2)n1 [crystal form I, (1S,2S)-2-fluoro-N-(2-(2-(4-((R)-(5-methyl-2H-tetrazol-2-yl)(phenyl)methyl)piperidine-1-carbonyl)pyridin-4-yl)benzo[d]oxazol-5-yl)cyclopropane-1-carboxamide] | remained unchanged after the magma | approximately 0.3% | – | – | – | –
2 | Cc1nnn([C@@H](c2ccccc2)C2CCN(C(=O)c3cc(-c4nc5cc(NC(=O)[C@@H]6C[C@@H]6F)ccc5o4)ccn3)CC2)n1 [Compound A, (1S,2S)-2-fluoro-N-(2-(2-(4-((R)-(5-methyl-2H-tetrazol-2-yl)(phenyl)methyl)piperidine-1-carbonyl)pyridin-4-yl)benzo[d]oxazol-5-yl)cyclopropane-1-carboxamide] | – | – | 3 | 14 | approximately 3.8% | 12
